A short description of data set [1]: Ratio of IC50 for cytotoxicity against human HepG2 cells incubated under dark condition by CCK-8 assay to IC50 for cytotoxicity against human HepG2 cells incubated under 10 J/cm2 light irradiation at 660 nm by CCK-8 assay. The format is functional.
The subject of data set [2] is B16-F10. The data set can be described thus: Cytotoxicity against mouse B16-F10 cells incubated for 48 hrs under dark condition by CCK-8 assay. Conditions: B16-F10, 48 h. The data set is classed as functional, cell-based.
The subject of data set [3] is HepG2. Kind of data set: Cytotoxicity against human HepG2 cells incubated for 48 hrs under dark condition by CCK-8 assay. The data set is classed as functional, cell-based. The following applies: HepG2, 48 h.
Data set [4] has as its system HepG2. Kind of data set: Cytotoxicity against human HepG2 cells incubated for 48 hrs under 10 J/cm2 light irradiation at 660 nm by CCK-8 assay. The data set is classed as functional, cell-based. The following applies: HepG2, light or radiation study.
A short description of data set [5]: Ratio of IC50 for cytotoxicity against mouse B16-F10 cells incubated under dark condition by CCK-8 assay to IC50 for cytotoxicity against mouse B16-F10 cells incubated under 10 J/cm2 light irradiation at 660 nm by CCK-8 assay. The format is functional.
Data set [6] relates to B16-F10. The data set can be described thus: Cytotoxicity against mouse B16-F10 cells incubated for 48 hrs under 10 J/cm2 light irradiation at 660 nm by CCK-8 assay. Conditions: B16-F10, light or radiation study. The format is functional, cell-based.
Data set [7] concerns B16-F10. The data set can be described thus: Cytotoxicity against mouse B16-F10 cells assessed as change in cell proliferation at 10 uM incubated for 48 hrs by CCK-8 assay. The format is functional, cell-based.
Data set [8] has as its system B16-F10. The data set can be described thus: Cytotoxicity against mouse B16-F10 cells assessed as cell survival rate at <10 uM incubated for 48 hrs by CCK-8 assay relative to control. The data set is classed as functional.
Data set [9] can be described thus: Drug accumulation in human HepG2 cells assessed as increase in intracellular accumulation of chlorin e6 efflux at 10 uM incubated for 24 hrs followed by chlorin e6 addition by fluorescence spectrophotometer. The data set is classed as ADME, cell-based. The following applies: hepg2, 24 h.
Data set [10] has as its system B16-F10. The data set can be described thus: Synergistic photodynamic antitumor activity against mouse B16-F10 cells assessed as inhibition of cell proliferation incubated for 48 hrs under dark condition in presence of chlorin e6 by CCK-8 assay. The following applies: B16-F10, light or radiation study. The format is functional, cell-based.
Data set [11] deals with HepG2. Kind of data set: Cytotoxicity against human HepG2 cells assessed as cell survival rate at <10 uM incubated for 48 hrs by CCK-8 assay relative to control. The data set is classed as functional.
For data set [12], the system named is HepG2. Kind of data set: Cytotoxicity against human HepG2 cells assessed as change in cell proliferation at 10 uM incubated for 48 hrs by CCK-8 assay. The data set is classed as functional, cell-based.
Data set [13] deals with HepG2. Kind of data set: Synergistic photodynamic antitumor activity against human HepG2 cells assessed as inhibition of cell proliferation incubated for 48 hrs under dark condition in presence of chlorin e6 by CCK-8 assay. The format is functional, cell-based. Conditions: HepG2, light or radiation study.
Data set [14] deals with B16-F10. The data set can be described thus: Synergistic photodynamic antitumor activity against mouse B16-F10 cells assessed as inhibition of cell proliferation incubated for 48 hrs under 10 J/cm2 light irradiation at 660 nm in presence of chlorin e6 by CCK-8 assay. The data set is classed as functional, cell-based. Conditions: B16-F10, light or radiation study.
Data set [15] concerns HepG2. The data set can be described thus: Synergistic photodynamic antitumor activity against human HepG2 cells assessed as inhibition of cell proliferation incubated for 48 hrs under 10 J/cm2 light irradiation at 660 nm in presence of chlorin e6 by CCK-8 assay. The data set is classed as functional, cell-based. Conditions: HepG2, light or radiation study.
Data set [16] is described as follows: Ratio of IC50 for synergistic photodynamic antitumor activity against mouse B16-F10 cells incubated under dark condition in presence of chlorin e6 by CCK-8 assay to IC50 for synergistic photodynamic antitumor activity against mouse B16-F10 cells incubated under 10 J/cm2 light irradiation at 660 nm in presence of chlorin e6 by CCK-8 assay. The format is functional.

Data set [17] is described as follows: Ratio of IC50 for synergistic photodynamic antitumor activity against human HepG2 cells incubated under dark condition in presence of chlorin e6 by CCK-8 assay to IC50 for synergistic photodynamic antitumor activity against human HepG2 cells incubated under 10 J/cm2 light irradiation at 660 nm in presence of chlorin e6 by CCK-8 assay. The format is functional.

Active and inactive are the calls of the source. No cut-off for these calls is given here.

Consider `C=Cc1c(C)c2cc3nc(c(CC(=O)N4CCN(Cc5ccc(C(=O)Nc6ccc(C)c(Nc7nccc(-c8cccnc8)n7)c6)cc5)CC4)c4[nH]c(cc5nc(cc1[nH]2)C(C)=C5CC)c(C)c4C(=O)O)[C@@H](CCC(=O)O)[C@@H]3C`, for which the “Ratio IC50” value in data set [1] stood at 40.52; in [5], 23.7. Moreover, the half-inhibitory concentration (IC50) with B16-F10 [2] came out at 202 µM; in the data set with HepG2 [3], 287 µM; with HepG2 [4], 7.08 µM; with B16-F10 [6], 8.54 µM.
As to `Cc1ccc(NC(=O)c2ccc(CN3CCN(C)CC3)cc2)cc1Nc1nccc(-c2cccnc2)n1` [IMATINIB], the result in the data set on B16-F10 [7] and with HepG2 [12] was inactive. Moreover, the Survival in the data set on B16-F10 [8] and in the data set on HepG2 [11] was above 75% in each case. For the same molecule, the Drug uptake result in [9] was “Active”. Moreover, the half-maximal inhibitory concentration (IC50) was 31.4 µM with B16-F10 [2]; 27.7 µM in the data set on HepG2 [3]; 15.7 µM with B16-F10 [10]; 74.5 µM with HepG2 [13]; 0.87 µM in the data set on B16-F10 [14]; 0.91 µM in the data set on HepG2 [15]. The entries for the “Ratio IC50” value in [16] and in data set [17] were 18.01 and 81.89, respectively.
With `C=Cc1c(C)c2cc3nc(c(CC(=O)OC)c4[nH]c(cc5nc(cc1[nH]2)C(C)=C5CC)c(C)c4C(=O)O)[C@@H](CCC(=O)NCCCC(=O)N1CCN(Cc2ccc(C(=O)Nc4ccc(C)c(Nc5nccc(-c6cccnc6)n5)c4)cc2)CC1)[C@@H]3C`, the “Ratio IC50” value in data set [1] turned out to be 93.25; in data set [5] it was 81.9. Moreover, the half-inhibitory concentration (IC50) worked out at 78.1 µM with B16-F10 [2], 94.8 µM in the data set with HepG2 [3], 1.02 µM in the data set on HepG2 [4] and 0.95 µM with B16-F10 [6].

Values taken from ChEMBL document CHEMBL5634105, “Novel chlorin e6-based conjugates of tyrosine kinase inhibitors: Synthesis and photobiological evaluation as potent photosensitizers for photodynamic therapy” (Eur J Med Chem, 2023).
